Measured values published in patent publication US8975015B2, “Antimicrobial compounds” (priority 2009, dated 2015).
Converted amounts (≈) assume the structure as drawn. Read-outs that look alike come from different tables or passages of the source.

Assays:
[1] = type: in vitro ADME
Method: Compound P1 was also tested for stability in simulated intestinal fluid.

[2] = human, microsomes
[3] = test system: Mycobacterium tuberculosis (replicating TB); test: microbe, parasite or virus in culture; type: cell-based; conditions: Mycobacterium tuberculosis, replicating TB, read-out: MABA MIC
M. smegmatis = test: MIC against M. smegmatis; type: cell-based; conditions: Mycolicibacterium smegmatis
[4] = test system: cultured kidney cells from the African Green monkey; test: cells; type: cell-based; conditions: Chlorocebus sabaeus
non-replicating TB = test: microbe, parasite or virus in culture; type: cell-based, Mycobacterium tuberculosis; conditions: Mycobacterium tuberculosis, read-out: LORA MIC
[5] = type: in vitro ADME; conditions: simulated gi fluid
[6] = mouse, microsomes

SMILES: O=C1C=Cc2nocc2/C1=C1/Nc2ccccc2C1=O [Example P1, 4-(3-oxoindolin-2-ylidene)benzo[c]isoxazol-5(4H)-one]
- % P1 ([1]; 0 min): 100%
- % P1 ([1]; 5 min): 99.9%
- % P1 ([1]; 25 min): 95.4%
- % P1 ([1]; 45 min): 97.7%
- % P1 ([1]; 65 min): 92.1%
- % P1 ([1]; 85 min): 86.2%
- % P1 ([1]; 125 min): 86.8%
- % P1 ([1]; 145 min): 83.5%
- half-life [2]: about 7 or 8 minutes
- MIC [3]: 0.49 µM (≈ 0.129 µg/mL)
- MIC (M. smegmatis): 4.05 µg/mL (≈ 15.3 µM)
- IC50 ([4]; African Green monkey kidney cells): > 50 µg/mL
- IC50 ([4]; Table 7, reaction products of T4MO isoform I100V with feedstock): 20.8 µg/mL (≈ 78.8 µM)
- MIC (non-replicating TB; non-replicating TB): 0.48 µM (≈ 0.127 µg/mL)
- % P1 remaining ([5]; 0 h): 100%
- % P1 remaining ([5]; 5 min): 99.2%
- % P1 remaining ([5]; 25 min): 99.6%
- % P1 remaining ([5]; 0.75 h): 101.3%
- % P1 remaining ([5]; 65 min): 99.6%
- % P1 remaining ([5]; 80 min): 97.0%
- % P1 remaining ([5]; 100 min): 101.6%
- % P1 remaining ([5]; 2 h): 102.1%
- % P1 remaining ([5]; 140 min): 100.2%
- half-life [6]: about 3 or 4 minutes

SMILES: NNC(=O)c1ccncc1 [Isoniazid, reference compound]
- MIC [3]: 0.56 µM (≈ 0.0768 µg/mL)
- MIC (non-replicating TB): > 128 µM

SMILES: CO[C@H]1/C=C/O[C@@]2(C)Oc3c(C)c(O)c4c(O)c(c(/C=N/N5CCN(C)CC5)c(O)c4c3C2=O)NC(=O)/C(C)=C\C=C\[C@H](C)[C@H](O)[C@@H](C)[C@@H](O)[C@@H](C)[C@H](OC(C)=O)[C@@H]1C [Rifampin, reference compound]
- MIC [3]: 0.06 µM (≈ 0.0494 µg/mL)
- MIC (non-replicating TB): 1.34 µM (≈ 1.1 µg/mL)

SMILES: O=C1C=Cc2nocc2/C1=C1/Nc2ccc(Cl)cc2C1=O [Example 3, 4-(5-chloro-3-oxoindolin-2-ylidene)benzo[c]isoxazol-5(4H)-one]
- MIC ([3]; 8-0.03 μM test concentration): 0.82 µM (≈ 0.245 µg/mL)
- MIC ([3]; 32-0.2 μM test concentration): 0.93 µM (≈ 0.278 µg/mL)
- MIC (non-replicating TB; non-replicating TB): 0.83 µM (≈ 0.248 µg/mL)

SMILES: O=C1C=Cc2nocc2/C1=C1/Nc2cc(Cl)ccc2C1=O [Example 2, 4-(6-chloro-3-oxoindolin-2-ylidene)benzo[c]isoxazol-5(4H)-one]
- MIC ([3]; 8-0.03 μM test concentration): 1.9 µM (≈ 0.568 µg/mL)
- MIC ([3]; 32-0.2 μM test concentration): 1.92 µM (≈ 0.573 µg/mL)
